Measured values as given in paper PMC7848139, “Novel Hybrid CHC from β-carboline and N-Hydroxyacrylamide Overcomes Drug-Resistant Hepatocellular Carcinoma by Promoting Apoptosis, DNA Damage, and Cell Cycle Arrest” (Frontiers in Pharmacology, 2021).

Legend:
recombinant human HDAC1 = molecular target: T1, recombinant human HDAC1 (Homo sapiens, UniProt Q13547); experiment: HDAC fluorimetric assay, HDAC1; type: biochemical
T1 construct: purchased Enzo Life Sciences Inc
Procedure: (§1) The assay was conducted according to the HDAC1/3/6/8 assay kit (Enzo Life Sciences Inc.). Each different concentrations of evaluated compounds were, respectively, incubated with each HDAC1/3/6/8 at coupling of corresponding HDAC substrate (Boc-Lys (Ac)-AMC) at 37°C for 60 min. Then stopping the reaction under adding lysine developer.

recombinant human HDAC6 = molecular target: T2, recombinant human HDAC6 (Homo sapiens, UniProt Q9UBN7); experiment: HDAC fluorimetric assay, HDAC6; type: biochemical
T2 construct: purchased Enzo Life Sciences Inc
T2 sequence (Q9UBN7 1-1215): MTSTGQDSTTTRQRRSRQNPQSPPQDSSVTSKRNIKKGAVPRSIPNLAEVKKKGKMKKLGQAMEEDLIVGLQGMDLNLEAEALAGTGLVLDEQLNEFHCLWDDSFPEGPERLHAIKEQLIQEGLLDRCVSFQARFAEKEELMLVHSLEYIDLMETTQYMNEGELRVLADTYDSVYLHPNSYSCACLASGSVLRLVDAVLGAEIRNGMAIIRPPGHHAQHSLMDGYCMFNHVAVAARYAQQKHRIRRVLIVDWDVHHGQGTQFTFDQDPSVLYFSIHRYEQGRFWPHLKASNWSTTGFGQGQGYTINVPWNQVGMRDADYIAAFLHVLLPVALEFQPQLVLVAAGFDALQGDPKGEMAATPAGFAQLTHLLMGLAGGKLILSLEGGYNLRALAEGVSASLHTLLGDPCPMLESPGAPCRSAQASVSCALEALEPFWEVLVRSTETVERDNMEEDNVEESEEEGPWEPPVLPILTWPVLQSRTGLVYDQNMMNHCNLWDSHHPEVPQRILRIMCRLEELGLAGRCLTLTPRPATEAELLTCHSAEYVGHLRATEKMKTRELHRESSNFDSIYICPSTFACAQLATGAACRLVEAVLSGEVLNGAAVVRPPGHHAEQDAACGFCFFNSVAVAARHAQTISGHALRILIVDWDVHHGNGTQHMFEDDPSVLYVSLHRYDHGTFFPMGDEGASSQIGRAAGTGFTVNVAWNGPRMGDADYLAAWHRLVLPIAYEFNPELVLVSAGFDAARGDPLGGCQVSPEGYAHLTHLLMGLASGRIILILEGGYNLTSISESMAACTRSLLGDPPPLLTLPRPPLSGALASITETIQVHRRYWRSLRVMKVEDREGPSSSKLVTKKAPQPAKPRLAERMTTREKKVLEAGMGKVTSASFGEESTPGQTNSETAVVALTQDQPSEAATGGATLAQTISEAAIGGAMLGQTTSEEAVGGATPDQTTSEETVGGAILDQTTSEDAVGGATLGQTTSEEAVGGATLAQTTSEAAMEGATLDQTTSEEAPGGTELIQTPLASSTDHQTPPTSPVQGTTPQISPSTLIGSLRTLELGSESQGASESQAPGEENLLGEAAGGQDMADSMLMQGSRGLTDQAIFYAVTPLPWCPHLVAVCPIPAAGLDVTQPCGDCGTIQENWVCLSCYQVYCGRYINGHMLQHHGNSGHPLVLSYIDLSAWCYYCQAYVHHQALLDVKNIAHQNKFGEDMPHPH
Procedure: as §1

recombinant human HDAC8 = molecular target: T3, recombinant human HDAC8 (Homo sapiens, UniProt Q9BY41); experiment: HDAC fluorimetric assay, HDAC8; type: biochemical; conditions: mean ± SD of three experiments
T3 construct: purchased Enzo Life Sciences Inc
T3 sequence (Q9BY41 1-377): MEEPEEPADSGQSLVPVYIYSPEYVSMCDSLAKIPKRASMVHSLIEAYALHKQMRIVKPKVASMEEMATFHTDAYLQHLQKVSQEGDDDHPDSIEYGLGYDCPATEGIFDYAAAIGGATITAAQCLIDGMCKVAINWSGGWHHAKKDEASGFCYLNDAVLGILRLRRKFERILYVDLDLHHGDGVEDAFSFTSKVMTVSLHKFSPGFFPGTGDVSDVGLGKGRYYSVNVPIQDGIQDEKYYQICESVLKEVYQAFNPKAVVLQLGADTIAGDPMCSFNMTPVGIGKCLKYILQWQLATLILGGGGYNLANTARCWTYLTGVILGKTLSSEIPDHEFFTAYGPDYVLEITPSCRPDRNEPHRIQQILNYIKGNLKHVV
Procedure: as §1

[1] = tested on: Ac-histone H3, Ac-histone H4, Ac-α-tubulin in Bel7402/5-FU cells; experiment: Western blotting of acetylated histone H3, H4 and α-tubulin; type: cell-based, human; conditions: 2.0 and 5.0 μM, 72 h
Procedure: (§2) The HDAC, autophagy and apoptosis-related proteins were analyzed according to Western blotting assay. […]. And anti-Ac-histone H3, anti-Ac-histone H4, anti-Ac-α-tubulin, anti-Bax, anti-Bcl2, anti-H2AX (S139ph), anti-CDK1, anti-cyclin B, and anti-β-actin antibodies (Cell Signaling Technology, MA, United States) detected the target proteins after membranes were blocked with 5% fat-free milk. The peroxidase-conjugated secondary antibodies detected the bound antibodies for 1 h and visualized according to improved chemiluminescent reagent.
The data (mean ± SD) were obtained from three independent assays. *p < 0.01 vs. control.

[2] = tested on: Bax, Bcl-2, caspase-3 in Bel7402/5-FU cells; experiment: Western blotting of apoptosis-related proteins; type: cell-based, human; conditions: 72 h
Procedure: as §2
[…]; (B) The relative expression levels of each protein (Bax, Bcl-2, pro-caspase-3, and cleaved caspase-3) were quantitatively analyzed using β-actin as reference. The data are presented as the mean ± SD of three separated assays. *p < 0.01 vs. control.

Bel7402/5-FU cells = experiment: Cell cycle analysis by flow cytometry; type: cell-based, human; conditions: 2.0 and 5.0 μM, 72 h
Procedure: The collected cells were ﬁxed in 70% ethanol at 4°C overnight, and then incubated with RNase A and using PI (Sigma-Aldrich) to stain. Flow cytometry evaluated the percent of Deoxyribonucleic acid (DNA) on ﬂow cytometer (Beckman Coulter). The ModFit LT (Verity, Software House, Topsham, ME, United States) analyzed distribution of cell cycles.
FIGURE 9 CHC caused G2/M arrest in Bel7402/5-FU cells (A) Bel7402/5-FU cells were treated with CHC at different concentrations (0, 2.0, and 5.0 μM) for 72 h; (B) Quantification of cell distribution per phase. Values (mean ± SD) were obtained from three separate experiments. *p < 0.01 vs. control.

[3] = tested on: cyclin B and CDK1 in Bel7402/5-FU cells; experiment: Western blotting of cyclin B and CDK1; type: cell-based, human; conditions: 2.0 and 5.0 μM, 72 h, immunoblotting
Procedure: as §2
. Values (mean ± SD) were obtained from three separate experiments. *p < 0.01 vs. control.

T1 sequence (Q13547 whole entry): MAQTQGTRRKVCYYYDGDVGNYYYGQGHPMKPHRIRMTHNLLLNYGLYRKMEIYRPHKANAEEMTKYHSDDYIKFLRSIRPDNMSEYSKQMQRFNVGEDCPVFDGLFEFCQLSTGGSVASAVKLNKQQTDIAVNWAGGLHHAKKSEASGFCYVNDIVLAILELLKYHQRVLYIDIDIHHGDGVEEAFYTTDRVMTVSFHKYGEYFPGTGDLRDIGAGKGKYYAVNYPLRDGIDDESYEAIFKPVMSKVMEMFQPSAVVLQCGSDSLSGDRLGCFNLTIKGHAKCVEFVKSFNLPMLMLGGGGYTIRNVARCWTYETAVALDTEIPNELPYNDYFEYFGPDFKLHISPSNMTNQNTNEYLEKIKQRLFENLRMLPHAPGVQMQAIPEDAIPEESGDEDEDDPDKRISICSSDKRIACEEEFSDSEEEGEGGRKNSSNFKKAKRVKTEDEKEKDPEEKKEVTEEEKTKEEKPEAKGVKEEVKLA

CN(C)c1ccc(-c2nc(C(=O)NCc3ccc(/C=C/C(=O)NO)cc3)cc3c2[nH]c2ccccc23)cc1 [CHC, (E)-N-(4-(3-(hydroxyamino)-3-oxoprop-1-en-1-yl)benzyl)-1-(4-dimethylaminophenyl)-9H-pyrido [3,4-b]indole-3-carboxamide]
IC50 on HDAC1 relative to SAHA (recombinant human HDAC1; compared with SAHA): approximately five-fold lower | IC50 (recombinant human HDAC1; mean ± SD of three experiments): 0.029 ± 0.003 µM | fold lower IC50 on HDAC1 than on HDAC3 (recombinant human HDAC1; selectivity HDAC1 over HDAC3): 4 fold | IC50 on HDAC6 relative to SAHA (recombinant human HDAC6; compared with SAHA): eight-fold lower | IC50 (recombinant human HDAC6; mean ± SD of three experiments): 0.0076 ± 0.001 µM | fold lower IC50 on HDAC6 than on HDAC3 (recombinant human HDAC6; selectivity HDAC6 over HDAC3): 18 fold | IC50 (recombinant human HDAC8): > 1 µM | acetylation of H3, H4 and α-tubulin [1]: promoted the acetylation of H3, H4, and α-tubulin with increasing dose | expression of Bax, Bcl-2 and cleavage of caspase-3 [2]: significantly upregulate the expression of Bax and cleavage of caspase-3 and downregulate the expression of Bcl-2 | cell cycle arrest (Bel7402/5-FU cells): significantly induced cell cycle arrest at the G2/M phase in a dose-dependent manner | expression of cyclin B and CDK1 [3]: downregulated the expression of cyclin B and CDK1
